Measurements published in publication PMC12169615, “Fluorescent 4‑Nitrobenzo-2-oxa-1,3-diazole-Coupled Bile Acids as Probe Substrates of Hepatic and Intestinal Bile Acid Transporters of the Solute Carrier Families SLC10 and SLCO” (Journal of Medicinal Chemistry, 2025).
Values joined by “and” are separate entries in the source; they are usually repeats but may differ in a detail not shown here. Identical values can stand only once.

Tests used:
Assay type in all cases: cell-based
[1] = molecular target: T1, mouse mNtcp (Mus musculus, UniProt O08705); assay: Quantitative uptake of 3-NBD-BA in carrier-expressing HEK293 cells (fluorescence reader); settings: mNtcp-HEK293, 25 μM, 37 °C, +Na+ vs -Na+
T1 construct: stably transfected with the full open reading frames of human NTCP, ASBT, SOAT, OATP1B1, and OATP1B3 as well as mouse mNtcp and mAsbt; expressed in transfected cells
T1 sequence (O08705 1-362): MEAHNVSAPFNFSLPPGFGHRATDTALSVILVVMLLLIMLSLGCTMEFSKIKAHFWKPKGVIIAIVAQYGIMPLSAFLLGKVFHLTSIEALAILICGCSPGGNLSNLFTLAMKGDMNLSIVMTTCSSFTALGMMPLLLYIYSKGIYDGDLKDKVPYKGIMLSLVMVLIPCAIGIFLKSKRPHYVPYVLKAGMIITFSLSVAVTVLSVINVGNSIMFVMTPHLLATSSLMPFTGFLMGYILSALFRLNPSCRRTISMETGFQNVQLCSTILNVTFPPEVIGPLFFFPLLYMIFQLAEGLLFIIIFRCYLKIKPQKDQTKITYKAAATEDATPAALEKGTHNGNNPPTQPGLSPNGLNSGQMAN
Protocol: For quantification of the transport activity of the synthesized NBD-BA, all cell lines were seeded on 96 well plates and transport experiments were performed under the same control conditions (-Na^+ control for the SLC10 carriers and nontransfected HEK293 cells for the OATP carriers) as before (Figure ). For each NBD-BA, a substrate concentration of 25 μM was used, and the uptake phase was terminated after 10 min of incubation at 37 °C. […] The transport ratios ranged from 3-fold to 39-fold. In direct comparison, 3α-NBD-TCA (14d) and 3α-NBD-GCA (16d) were transported better than their 3β-analogs 3β-NBD-TCA (14a) and 3β-NBD-GCA (16a), respectively, clearly pointing to a preference for the α-position over the β-position of the 3-NBD-label. In direct comparison between the taurine- or glycine-conjugation of the respective NBD-BA, there was a clear preference for 3α-NBD-GCA (16d) over 3α-NBD-TCA (14d), at least for NTCP and mAsbt, pointing to a favorable substrate recognition for glycine-conjugated NBD-BA.
5 Quantitative uptake experiments with the 3-NBD-BA in HEK293 cells stably expressing the human carriers NTCP, ASBT, SOAT, OATP1B1, and OATP1B3, or the mouse carriers mNtcp and mAsbt. For the SLC10 carriers, all transport experiments were performed in the presence (filled bars) and the absence (hatched bars) of sodium. For the OATP carriers, uptake into carrier-expressing cells (filled bars) was compared to uptake into non-carrier-expressing HEK293 cells (hatched bars). All cell lines were incubated at 37 °C for 10 min with the indicated 3-NBD-BA at 25 μM. Then, cells were washed with PBS and subjected to fluorescence detection. The following fluorescent BA were analyzed: 3α-NBD-TCA (14d), 3β-NBD-TCA (14a), 3α-NBD-GCA (16d), 3β-NBD-GCA (16a), 3β-NBD-TCDCA (14b), 3β-NBD-CDCA (6b), 3β-NBD-DCA (6c), 3α-NBD-CA (6d), and 3β-NBD-CA (6a). Data represent means ± SD of triplicate determinations of representative experiments. […] RFU, relative fluorescence units. TEXT PRINTED IN THE PICTURE: 3α-NBD-TCA (14d): NTCP: 9 X; mNtcp: 30 X; ASBT: 2 X; mAsbt: 14 X | 3ß-NBD-TCA (14a): NTCP: 12 X; mNtcp: 20 X; mAsbt: 18 X | 3α-NBD-GCA (16d): NTCP: 27 X; mNtcp: 26 X; ASBT: 3 X; mAsbt: 39 X | 3ß-NBD-GCA (16a): NTCP: 15 X; mNtcp: 14 X; mAsbt: 5 X | 3ß-NBD-TCDCA (14b): NTCP: 5 X; mNtcp: 3 X; mAsbt: 4 X | 3ß-NBD-CDCA (6b): mNtcp: < 2 X; ASBT: < 2 X; mAsbt: < 2 X; OATP1B1: < 2 X; OATP1B3: < 2 X | 3ß-NBD-DCA (6c): mNtcp: < 2 X; ASBT: < 2 X; mAsbt: < 2 X | 3α-NBD-CA (6d): mNtcp: 2 X; mAsbt: 4 X | 3ß-NBD-CA (6a): NTCP: 2 X; mNtcp: 2 X; mAsbt: 2 X DOUBTS OF THE COPYIST ABOUT THIS PICTURE: The picture prints no panel letters, so the chart titles (NTCP, mNtcp, ASBT, mAsbt, OATP1B1, OATP1B3) are written in front of the values as the target. / Substance labels: the sign after '3' is printed like 'ß' and may be meant as 'β'. / The 'ns' marks and significance asterisks were left out as statistics. The SOAT chart prints only 'ns'.

[2] = molecular target: T2, human NTCP (Homo sapiens, UniProt Q14973); assay: Fluorescence microscopy screening of cellular uptake of 3-NBD-BA; settings: 50 μM, 10 min, +Na+ vs -Na+
T2 construct: HEK293 cell lines stably transfected with the full open reading frames of human NTCP; expressed in transfected cells
T2 sequence (Q14973 1-349): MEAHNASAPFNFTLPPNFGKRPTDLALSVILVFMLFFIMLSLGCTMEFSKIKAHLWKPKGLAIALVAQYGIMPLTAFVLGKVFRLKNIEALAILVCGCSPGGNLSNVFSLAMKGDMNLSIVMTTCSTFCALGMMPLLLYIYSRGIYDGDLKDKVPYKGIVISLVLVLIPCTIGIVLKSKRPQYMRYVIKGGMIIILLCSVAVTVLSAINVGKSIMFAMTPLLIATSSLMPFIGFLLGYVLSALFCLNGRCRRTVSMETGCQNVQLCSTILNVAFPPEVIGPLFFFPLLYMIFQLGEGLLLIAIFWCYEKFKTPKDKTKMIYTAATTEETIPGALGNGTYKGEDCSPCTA
Protocol: (§1) Then, all cell lines were cultivated in chamber slides and were grown to confluence to screen for carrier-mediated cellular accumulation of the synthesized NBD-BA. Incubation with the NBD-BA was done in the presence of sodium (+Na^+) as well as in the absence of sodium (-Na^+, negative control) for all SLC10 carriers, namely NTCP, ASBT, mNtcp, mAsbt, and SOAT. For OATP1B1 and OATP1B3, nontransfected HEK293 cells were used as negative control.
(§2) 4 Screening of the cellular uptake of 3-NBD-BA in HEK293 (HEK) cells stably expressing the human carriers NTCP, ASBT, SOAT, OATP1B1, and OATP1B3, or the mouse carriers mNtcp and mAsbt. For the SLC10 carriers, sodium-free conditions (-Na^+) were used as control. For the OATPs, experiments in non-carrier-expressing HEK293 cells (HEK) served as control. All cell lines were incubated for 10 min with the indicated 3-NBD-BA at 50 μM concentration. Then, cells were washed with PBS and subjected to fluorescence microscopy. Identical microscope settings were used for all images. Scale bar: 75 μm.

[3] = molecular target: T1, mouse mNtcp; assay: as above; settings: 50 μM, 10 min, +Na+ vs -Na+
Protocol: as §1, §2

7α-Hydroxy-3β-[(7-nitro-2,1,3-benzoxadiazol-4-yl)amino]-5β-cholan-24-oate [6b]
Specific transport ratio mNtcp (25µM/10 min uptake) [1]: <2x x-fold

12α-Hydroxy-3β-[(7-nitro-2,1,3-benzoxadiazol-4-yl)amino]-5β-cholan-24-oate [6c]
Specific transport ratio mNtcp (25µM/10 min uptake) [1]: <2x x-fold

C[C@H](CCC(=O)O)[C@H]1CC[C@H]2[C@@H]3[C@H](O)C[C@@H]4C[C@@H](Nc5ccc([N+](=O)[O-])c6nonc56)CC[C@]4(C)[C@H]3C[C@H](O)[C@]12C [6a, 7α,12α-Dihydroxy-3β-[(7-nitro-2,1,3-benzoxadiazol-4-yl)amino]-5β-cholan-24-oate]
Specific transport ratio mNtcp (25µM/10 min uptake) [1]: 2 x-fold and 2x x-fold

C[C@H](CCC(=O)O)[C@H]1CC[C@H]2[C@@H]3[C@H](O)C[C@@H]4C[C@H](Nc5ccc([N+](=O)[O-])c6nonc56)CC[C@]4(C)[C@H]3C[C@H](O)[C@]12C [6d, 7α,12α-Dihydroxy-3α-[(7-nitro-2,1,3-benzoxadiazol-4-yl)amino]-5β-cholan-24-oate]
Specific transport ratio mNtcp (25µM/10 min uptake) [1]: 2 x-fold and 2x x-fold

C[C@H](CCC(=O)NCCS(=O)(=O)[O-])[C@H]1CC[C@H]2[C@@H]3[C@H](O)C[C@@H]4C[C@@H](Nc5ccc([N+](=O)[O-])c6nonc56)CC[C@]4(C)[C@H]3C[C@H](O)[C@]12C.[Na+] [14a]
Cellular NBD-fluorescence, NTCP-HEK293 (microscopy) [2]: significant increase in cellular NBD-fluorescence compared to the negative control | Cellular NBD-fluorescence, mNtcp-HEK293 (microscopy) [3]: significant increase in cellular NBD-fluorescence compared to the negative control | Specific transport ratio mNtcp (25µM/10 min uptake) [1]: 20x x-fold

C[C@H](CCC(=O)NCCS(=O)(=O)[O-])[C@H]1CC[C@H]2[C@@H]3[C@H](O)C[C@@H]4C[C@H](Nc5ccc([N+](=O)[O-])c6nonc56)CC[C@]4(C)[C@H]3C[C@H](O)[C@]12C.[Na+] [14d]
Cellular NBD-fluorescence, NTCP-HEK293 (microscopy) [2]: significant increase in cellular NBD-fluorescence compared to the negative control | Cellular NBD-fluorescence, mNtcp-HEK293 (microscopy) [3]: significant increase in cellular NBD-fluorescence compared to the negative control | Specific transport ratio mNtcp (25µM/10 min uptake) [1]: 30x x-fold

C[C@H](CCC(=O)NCC(=O)O)[C@H]1CC[C@H]2[C@@H]3[C@H](O)C[C@@H]4C[C@@H](Nc5ccc([N+](=O)[O-])c6nonc56)CC[C@]4(C)[C@H]3C[C@H](O)[C@]12C [16a]
Cellular NBD-fluorescence, NTCP-HEK293 (microscopy) [2]: significant increase in cellular NBD-fluorescence compared to the negative control | Cellular NBD-fluorescence, mNtcp-HEK293 (microscopy) [3]: significant increase in cellular NBD-fluorescence compared to the negative control | Specific transport ratio mNtcp (25µM/10 min uptake) [1]: 14x x-fold

C[C@H](CCC(=O)NCC(=O)O)[C@H]1CC[C@H]2[C@@H]3[C@H](O)C[C@@H]4C[C@H](Nc5ccc([N+](=O)[O-])c6nonc56)CC[C@]4(C)[C@H]3C[C@H](O)[C@]12C [16d]
Cellular NBD-fluorescence, NTCP-HEK293 (microscopy) [2]: significant increase in cellular NBD-fluorescence compared to the negative control | Cellular NBD-fluorescence, mNtcp-HEK293 (microscopy) [3]: significant increase in cellular NBD-fluorescence compared to the negative control | Specific transport ratio mNtcp (25µM/10 min uptake) [1]: 26x x-fold
